Tested on: idiopathic inflammatory bowel disease
Assay type: in vivo, human
Procedure: The first diagnosis was performed at North Shore University Hospital Manhasset, Long Island, N.Y. in 1999 by colonoscope. Major symptoms included diarrhea, loose stool and bleeding while their overall condition of health was considered excellent. Clinical-activity index (Table 5) (113) was determined to be between 7 and 8. Their physician prescribed hydrocortisone foam, which they administered for 10 days according to doctor's instructions. […] In early 2002, they went to a well-known and respected Chinese Medical Hospital in Beijing where Flexible Sigmoidoscopy was performed. Again, they were diagnosed as having active inflammatory bowel disease.
At this time, as previous treatments had no effect, their physician prescribed several traditional Chinese medicines. They administered these for several months, yet no improvement of their symptoms resulted. During the period of February 2000 to the summer of 2002, they also tried various other traditional Chinese medicines due to the continued and very troublesome nature of their disease, but nothing was successful. Upon returning to the United States in 2002, they went to the Mount Sinai Medical Center, a nationally recognized American center for the treatment of inflammatory bowel disease. In October 2002, their new physician again performed a colonoscope, together with a histological examination of two biopsy samples (A and B) (FIG. 8, panel A, before the treatment).
These included skin itch, abdominal cramping, pain and bleeding. They then asked their physician for advice and was instructed to use this medication on an intermittently. However, the side effects continued actually worsened each time the medication was used. They then halted all application of this medication.
The patient voluntarily administered Meisoindigo at a recommended dose of 25 mg, once a day for a scheduled three weeks of treatment. […] After nine weeks of remission (three weeks on the medicine, three weeks off of the medicine, and three weeks on the medicine again), the patient again visited their physician and requested a Flexible Sigmoidoscopy to determine if their remission was subjective or objective. The Flexible Sigmoidoscopy was performed on Nov. 4, 2003. After reviewing the results their physician concluded that their inflammation completely arrested.

[1] = 25 mg once a day, before treatment 0
[2] = 25 mg once a day, before treatment 1
[3] = 25 mg once a day, before treatment 2

## CN1C(=O)/C(=C2/C(=O)Nc3ccccc32)c2ccccc21 [Meisoindigo]
25 mg once a day, after the first three doses
  clinical response: complete remission
[1]
  Patient Score After Treatment: Abdominal tenderness: 0
  Patient Score After Treatment: Nocturnal diarrhea: 0
[2]
  Patient Score After Treatment: Abdominal pain or cramping: 0
  Patient Score After Treatment: Fecal incontinence: 0
  Patient Score After Treatment: Need for antidiarrhea drugs: 0
[3]
  Patient Score After Treatment: Diarrhea (No. of daily stools): 0
  Patient Score After Treatment: General well-being: 0
  Patient Score After Treatment: Visible blood in stool (% of movements): 0
After nine weeks of remission (three weeks on, three off, three on)
  Flexible Sigmoidoscopy / pathological examination after treatment: inactive chronic protocolitis suggestive of idiopathic inflammatory bowel disease
human, in vivo
  total amount of drug needed to obtain a complete cure of the inflammatory bowel disease: 525 mg
